Test results published in PubChem BioAssay AID2060909 (Molecular Pharmacology Branch, DTP, NCI, 2025).

Tested on: 362531-283-R-J2-PDC complex spheroid viability
Test: Anticancer human tumor 362531-283-R-J2-PDC patient-derived colon adenocarcinoma cell line growth inhibition [RAS]
Conditions: for IC50: curve of first compound; for viability, T/C: stronger effect = lower value
In short: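 Agents were tested in combination matrices in half-log decrements from a top concentration at or near clinical Cmax (10 microM if undetermined). Targets were multi-cell spheroids of tumour lines plus HUVEC and MSC stromal cells.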

[1] = second compound 0.000949 µM, first compound 0.0316 µM
[2] = second compound 0.000949 µM, first compound 0.1 µM
[3] = second compound 0.000949 µM, first compound 0.316 µM
[4] = second compound 0.000949 µM, first compound 1 µM
[5] = second compound 0.003 µM, first compound 0.0316 µM
[6] = second compound 0.003 µM, first compound 0.1 µM
[7] = second compound 0.003 µM, first compound 0.316 µM
[8] = second compound 0.003 µM, first compound 1 µM
[9] = second compound 0.00949 µM, first compound 0.0316 µM
[10] = second compound 0.00949 µM, first compound 0.1 µM
[11] = second compound 0.00949 µM, first compound 0.316 µM
[12] = second compound 0.00949 µM, first compound 1 µM
[13] = second compound 0.03 µM, first compound 0.0316 µM
[14] = second compound 0.03 µM, first compound 0.1 µM
[15] = second compound 0.03 µM, first compound 0.316 µM
[16] = second compound 0.03 µM, first compound 1 µM
[17] = second compound 0.0949 µM, first compound 0.0316 µM
[18] = second compound 0.0949 µM, first compound 0.1 µM
[19] = second compound 0.0949 µM, first compound 0.316 µM
[20] = second compound 0.0949 µM, first compound 1 µM
[21] = second compound 0.3 µM, first compound 0.0316 µM
[22] = second compound 0.3 µM, first compound 0.1 µM
[23] = second compound 0.3 µM, first compound 0.316 µM
[24] = second compound 0.3 µM, first compound 1 µM
[25] = second compound 0.000949 µM, first compound 3.16 µM
[26] = second compound 0.000949 µM, first compound 10 µM
[27] = second compound 0.003 µM, first compound 3.16 µM
[28] = second compound 0.003 µM, first compound 10 µM
[29] = second compound 0.00949 µM, first compound 3.16 µM
[30] = second compound 0.00949 µM, first compound 10 µM
[31] = second compound 0.03 µM, first compound 3.16 µM
[32] = second compound 0.03 µM, first compound 10 µM
[33] = second compound 0.0949 µM, first compound 3.16 µM
[34] = second compound 0.0949 µM, first compound 10 µM
[35] = second compound 0.3 µM, first compound 3.16 µM
[36] = second compound 0.3 µM, first compound 10 µM
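Further: spheroids exposed to the agents for 7 days before readout.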
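Wherever viability, T/C is given: luminescence viability as percent of DMSO vehicle control wells.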

Question: What does the source list for `CCN1CCN(Cc2ccc(Nc3ncc(F)c(-c4cc(F)c5nc(C)n(C(C)C)c5c4)n3)nc2)CC1` + CCn1c(-c2cccnc2C(C)OC)c2c3cc(ccc31)N1CCOC(CC(NC(=O)C(C(C)C)N(C)C(=O)C3(F)CCN(C(=O)C#CC(C)(C)N(C)C)CC3)C(=O)N3CCCC(N3)C(=O)OCC(C)(C)C2)C1?
Answer: IC50 (second compound 0.000949 µM): > 1 µM; IC50 (second compound 0.003 µM): 0.719 µM; IC50 (second compound 0.00949 µM): 0.876 µM; IC50 (second compound 0.03 µM): > 1 µM; IC50 (second compound 0.0949 µM): > 1 µM; IC50 (second compound 0.3 µM): 0.437 µM; viability, T/C (second compound 0.000949 µM, first compound 0.00316 µM): 96%; viability, T/C (second compound 0.000949 µM, first compound 0.01 µM): 92%; viability, T/C [1]: 67.3%; viability, T/C [2]: 83.8%; viability, T/C [3]: 66.4%; viability, T/C [4]: 46.7%; viability, T/C (second compound 0.003 µM, first compound 0.00316 µM): 108%; viability, T/C (second compound 0.003 µM, first compound 0.01 µM): 98.5%; viability, T/C [5]: 65.6%; viability, T/C [6]: 73%; viability, T/C [7]: 66.6%; viability, T/C [8]: 40.9%; viability, T/C (second compound 0.00949 µM, first compound 0.00316 µM): 105%; viability, T/C (second compound 0.00949 µM, first compound 0.01 µM): 105%; viability, T/C [9]: 55.3%; viability, T/C [10]: 74.4%; viability, T/C [11]: 59.8%; viability, T/C [12]: 45.7%; viability, T/C (second compound 0.03 µM, first compound 0.00316 µM): 112%; viability, T/C (second compound 0.03 µM, first compound 0.01 µM): 94.2%; viability, T/C [13]: 57.5%; viability, T/C [14]: 65.8%; viability, T/C [15]: 66.1%; viability, T/C [16]: 43.4%; viability, T/C (second compound 0.0949 µM, first compound 0.00316 µM): 103%; viability, T/C (second compound 0.0949 µM, first compound 0.01 µM): 88.3%; viability, T/C [17]: 53.4%; viability, T/C [18]: 69%; viability, T/C [19]: 65%; viability, T/C [20]: 46.6%; viability, T/C (second compound 0.3 µM, first compound 0.00316 µM): 100%; viability, T/C (second compound 0.3 µM, first compound 0.01 µM): 82.5%; viability, T/C [21]: 56.4%; viability, T/C [22]: 64.9%; viability, T/C [23]: 57.2%; viability, T/C [24]: 40.9%

Question: For `Cc1nc(N2CCC3(CC2)COC(C)C3N)c(CO)nc1Sc1ccnc(N)c1Cl` (stereo unspecified) + CCn1c(-c2cccnc2C(C)OC)c2c3cc(ccc31)N1CCOC(CC(NC(=O)C(C(C)C)N(C)C(=O)C3(F)CCN(C(=O)C#CC(C)(C)N(C)C)CC3)C(=O)N3CCCC(N3)C(=O)OCC(C)(C)C2)C1, which IC50 (second compound 0.000949 µM) is on record?
Answer: > 10 µM

Question: And the IC50 (second compound 0.003 µM)?
Answer: > 10 µM

Question: And the IC50 (second compound 0.00949 µM)?
Answer: > 10 µM

Question: What about the IC50 (second compound 0.03 µM) of the same molecule?
Answer: > 10 µM

Question: What about the IC50 (second compound 0.0949 µM) of the same molecule?
Answer: > 10 µM

Question: What about the IC50 (second compound 0.3 µM) of the same molecule?
Answer: > 10 µM

Question: And the viability, T/C [1]?
Answer: 103%

Question: What about the viability, T/C [2] of the same molecule?
Answer: 103%

Question: What about the viability, T/C [3] of the same molecule?
Answer: 93%

Question: What about the viability, T/C [4] of the same molecule?
Answer: 102%

Question: What about the viability, T/C [25] of the same molecule?
Answer: 80.6%

Question: What about the viability, T/C [26] of the same molecule?
Answer: 72%

Question: And the viability, T/C [5]?
Answer: 111%

Question: What about the viability, T/C [6] of the same molecule?
Answer: 103%

Question: What about the viability, T/C [7] of the same molecule?
Answer: 103%

Question: And the viability, T/C [8]?
Answer: 86.7%

Question: What about the viability, T/C [27] of the same molecule?
Answer: 87.3%

Question: What about the viability, T/C [28] of the same molecule?
Answer: 71.1%

Question: What about the viability, T/C [9] of the same molecule?
Answer: 102%

Question: What about the viability, T/C [10] of the same molecule?
Answer: 111%

Question: And the viability, T/C [11]?
Answer: 92.1%

Question: What about the viability, T/C [12] of the same molecule?
Answer: 93.3%

Question: And the viability, T/C [29]?
Answer: 82.4%

Question: What about the viability, T/C [30] of the same molecule?
Answer: 77.7%

Question: And the viability, T/C [13]?
Answer: 102%

Question: And the viability, T/C [14]?
Answer: 108%

Question: What about the viability, T/C [15] of the same molecule?
Answer: 95.5%

Question: And the viability, T/C [16]?
Answer: 89.9%

Question: And the viability, T/C [31]?
Answer: 82.5%

Question: And the viability, T/C [32]?
Answer: 66.4%

Question: And the viability, T/C [17]?
Answer: 105%

Question: What about the viability, T/C [18] of the same molecule?
Answer: 94.9%

Question: And the viability, T/C [19]?
Answer: 96.7%

Question: And the viability, T/C [20]?
Answer: 77.5%

Question: And the viability, T/C [33]?
Answer: 85.6%

Question: What about the viability, T/C [34] of the same molecule?
Answer: 74.7%

Question: What about the viability, T/C [21] of the same molecule?
Answer: 94.8%

Question: What about the viability, T/C [22] of the same molecule?
Answer: 117%

Question: And the viability, T/C [23]?
Answer: 94.2%

Question: What about the viability, T/C [24] of the same molecule?
Answer: 87.4%

Question: What about the viability, T/C [35] of the same molecule?
Answer: 76.7%

Question: And the viability, T/C [36]?
Answer: 64.9%

Question: Which results are given for `NC1c2ccccc2OC12CCN(c1cnc3c(N4CCCc5ncccc54)n[nH]c3n1)CC2` (stereo unspecified) + CCn1c(-c2cccnc2C(C)OC)c2c3cc(ccc31)N1CCOC(CC(NC(=O)C(C(C)C)N(C)C(=O)C3(F)CCN(C(=O)C#CC(C)(C)N(C)C)CC3)C(=O)N3CCCC(N3)C(=O)OCC(C)(C)C2)C1?
Answer: IC50 (second compound 0.000949 µM): 5.44 µM; IC50 (second compound 0.003 µM): > 10 µM; IC50 (second compound 0.00949 µM): 7.5 µM; IC50 (second compound 0.03 µM): 6.81 µM; IC50 (second compound 0.0949 µM): 5.87 µM; IC50 (second compound 0.3 µM): > 10 µM; viability, T/C [1]: 91.7%; viability, T/C [2]: 86.7%; viability, T/C [3]: 76.7%; viability, T/C [4]: 72.8%; viability, T/C [25]: 54.8%; viability, T/C [26]: 43%; viability, T/C [5]: 94.8%; viability, T/C [6]: 87.5%; viability, T/C [7]: 75%; viability, T/C [8]: 66.8%; viability, T/C [27]: 63.3%; viability, T/C [28]: 52%; viability, T/C [9]: 86.6%; viability, T/C [10]: 88.5%; viability, T/C [11]: 71.3%; viability, T/C [12]: 80.3%; viability, T/C [29]: 69.9%; viability, T/C [30]: 43.2%; viability, T/C [13]: 95.8%; viability, T/C [14]: 74.2%; viability, T/C [15]: 77.4%; viability, T/C [16]: 76.4%; viability, T/C [31]: 65.6%; viability, T/C [32]: 41.3%; viability, T/C [17]: 95.3%; viability, T/C [18]: 85.2%; viability, T/C [19]: 79%; viability, T/C [20]: 74.3%; viability, T/C [33]: 56.4%; viability, T/C [34]: 42.8%; viability, T/C [21]: 87.8%; viability, T/C [22]: 75.6%; viability, T/C [23]: 76.9%; viability, T/C [24]: 67.4%; viability, T/C [35]: 57.7%; viability, T/C [36]: 53.1%
